Measurements as given in PubChem BioAssay (NCI).
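A five-concentration, 48-hour dose response in 96-well plates underlies each endpoint, interpolated linearly between surrounding concentrations. TGI denotes the concentration required for complete inhibition of growth.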

What was measured:
Test in all cases: inhibition of tumour cell growth, NCI panel, 48 h
MOLT-4 leukemia = tested on: MOLT-4 leukemia
EKVX NSCLC = tested on: EKVX NSCLC
NCI/ADR-RES ovarian = tested on: NCI/ADR-RES ovarian
SR leukemia = tested on: SR leukemia
DU-145 prostate = tested on: DU-145 prostate
NCI-H460 lung = tested on: NCI-H460 lung
OVCAR-4 ovarian = tested on: OVCAR-4 ovarian
SK-MEL-2 melanoma = tested on: SK-MEL-2 melanoma
RXF 393 renal = tested on: RXF 393 renal
BT-549 breast = tested on: BT-549 breast
UACC-257 melanoma = tested on: UACC-257 melanoma
SNB-19 CNS = tested on: SNB-19 CNS
KM12 colon = tested on: KM12 colon
SK-OV-3 ovarian = tested on: SK-OV-3 ovarian
A498 renal = tested on: A498 renal
U251 CNS = tested on: U251 CNS
SW-620 colon = tested on: SW-620 colon
SK-MEL-28 melanoma = tested on: SK-MEL-28 melanoma
COLO 205 colon = tested on: COLO 205 colon
HL-60(TB) leukemia = tested on: HL-60(TB) leukemia
CCRF-CEM leukemia = tested on: CCRF-CEM leukemia
MCF7 breast = tested on: MCF7 breast
HT29 colon = tested on: HT29 colon
PC-3 prostate = tested on: PC-3 prostate
MDA-N = tested on: MDA-N
MDA-MB-231 breast = tested on: MDA-MB-231 breast
SN12C renal = tested on: SN12C renal
LOX IMVI melanoma = tested on: LOX IMVI melanoma
IGROV1 ovarian = tested on: IGROV1 ovarian
CAKI-1 renal = tested on: CAKI-1 renal
SF-539 CNS = tested on: SF-539 CNS
MDA-MB-435 = tested on: MDA-MB-435
HCT-15 colon = tested on: HCT-15 colon
TK-10 renal = tested on: TK-10 renal
NCI-H23 lung = tested on: NCI-H23 lung
786-0 renal = tested on: 786-0 renal
HS 578T breast = tested on: HS 578T breast
SF-268 CNS = tested on: SF-268 CNS
SK-MEL-5 melanoma = tested on: SK-MEL-5 melanoma
HCC-2998 colon = tested on: HCC-2998 colon
OVCAR-3 ovarian = tested on: OVCAR-3 ovarian
HOP-62 NSCLC = tested on: HOP-62 NSCLC
K-562 leukemia = tested on: K-562 leukemia
UACC-62 melanoma = tested on: UACC-62 melanoma
ACHN renal = tested on: ACHN renal
UO-31 renal = tested on: UO-31 renal
A549 NSCLC = tested on: A549 NSCLC
OVCAR-8 ovarian = tested on: OVCAR-8 ovarian
HOP-92 NSCLC = tested on: HOP-92 NSCLC
T-47D breast = tested on: T-47D breast
M14 melanoma = tested on: M14 melanoma
OVCAR-5 ovarian = tested on: OVCAR-5 ovarian
MALME-3M melanoma = tested on: MALME-3M melanoma
NCI-H226 lung = tested on: NCI-H226 lung
HCT-116 colon = tested on: HCT-116 colon
NCI-H522 lung = tested on: NCI-H522 lung
RPMI-8226 leukemia = tested on: RPMI-8226 leukemia
SF-295 CNS = tested on: SF-295 CNS

Clc1ccc2c(NC3CCC(N4CCCCC4)CC3)ccnc2c1 (stereo not drawn)
TGI (MOLT-4 leukemia): > 100 µM | TGI (EKVX NSCLC): > 100 µM | TGI (NCI/ADR-RES ovarian): > 100 µM | TGI (SR leukemia): 35.5 µM | TGI (DU-145 prostate): > 100 µM | TGI (NCI-H460 lung): 33.2 µM | TGI (OVCAR-4 ovarian): 78.6 µM | TGI (SK-MEL-2 melanoma): 33.9 µM | TGI (RXF 393 renal): 43.7 µM | TGI (BT-549 breast): 42.8 µM | TGI (UACC-257 melanoma): 29.4 µM | TGI (SNB-19 CNS): > 100 µM | TGI (KM12 colon): 51.9 µM | TGI (SK-OV-3 ovarian): > 100 µM | TGI (A498 renal): 38.6 µM | TGI (U251 CNS): 57.1 µM | TGI (SW-620 colon): > 100 µM | TGI (SK-MEL-28 melanoma): 36.8 µM | TGI (COLO 205 colon): 27.2 µM | TGI (HL-60(TB) leukemia): 43.5 µM | TGI (CCRF-CEM leukemia): > 100 µM | TGI (MCF7 breast): > 100 µM | TGI (HT29 colon): 40.7 µM | TGI (PC-3 prostate): > 100 µM | TGI (MDA-N): 33.2 µM | TGI (MDA-MB-231 breast): 40 µM | TGI (SN12C renal): > 100 µM | TGI (LOX IMVI melanoma): 33 µM | TGI (IGROV1 ovarian): > 100 µM | TGI (CAKI-1 renal): 50.7 µM | TGI (SF-539 CNS): 36.2 µM | TGI (MDA-MB-435): 28.5 µM | TGI (HCT-15 colon): > 100 µM | TGI (TK-10 renal): 48.8 µM | TGI (NCI-H23 lung): > 100 µM | TGI (786-0 renal): 41.7 µM | TGI (HS 578T breast): 56.4 µM | TGI (SF-268 CNS): > 100 µM | TGI (SK-MEL-5 melanoma): 30.6 µM | TGI (HCC-2998 colon): 27.4 µM | TGI (OVCAR-3 ovarian): 59.2 µM | TGI (HOP-62 NSCLC): > 100 µM | TGI (K-562 leukemia): 62.1 µM | TGI (UACC-62 melanoma): 32.2 µM | TGI (ACHN renal): > 100 µM | TGI (UO-31 renal): 28 µM | TGI (A549 NSCLC): > 100 µM | TGI (OVCAR-8 ovarian): > 100 µM | TGI (HOP-92 NSCLC): 29.9 µM | TGI (T-47D breast): > 100 µM | TGI (M14 melanoma): 18.1 µM | TGI (OVCAR-5 ovarian): > 100 µM | TGI (MALME-3M melanoma): 36.1 µM | TGI (NCI-H226 lung): 48.1 µM | TGI (HCT-116 colon): 44.7 µM | TGI (NCI-H522 lung): 51.6 µM | TGI (RPMI-8226 leukemia): 84 µM | TGI (SF-295 CNS): 36.8 µM
